{"source": "patent US11603515B2", "about": "“Cell culture substrate, cancer cell aggregate and method for manufacturing same using said substrate, and drug screening method using said cancer cell aggregate” (NATIONAL UNIVERSITY CORPORATION HOKKAIDO UNIVERSITY, priority 2017, dated 2023)", "tested_on": "microtumor consisting of PCI-55 cells", "test": "Evaluation of anticancer agent using microtumors (morphological change and molecular expression)", "format": "cell-based, human", "protocol": "A total of six types of cell culture substrates with Roughness (+) or Roughness (−) of 30, 95, or 300 μm in spot diameter were used to culture human pancreatic ductal adenocarcinoma cell line PCI-55. Immediately before culturing the cells, each of the cell culture substrates was immersed in distilled water for about 30 minutes to detach the polyparaxylene layer. Then, the cell culture substrate was washed using water, sterilized with 70% ethanol, and air dried. The cell culture substrate was then fixed to the inner bottom of a culture dish (Asnol petri dish, AS ONE) with 40 mm in diameter and 13.5 mm in depth via Vaseline. After adding DMEM and washing the cell culture substrate for three times, 3×10^6 of PCI-55 cells suspended in 3 mL of DMEM were seeded on each cell culture substrate, and cultured at 37 degrees Celsius overnight to for 48 hours.\nMorphological change in microtumors was observed, by adding nocodazole known as an anticancer agent with microtubule polymerization inhibitory activity to a culture medium of the microtumor consisting of PCI-55 cells formed on the cell culture substrate 1 in Example 2 so that the final concentration becomes 1 μM.", "key": {"[1]": {"conditions": "nocodazole 1 μM, 24 hours after treatment, fluorescence images (FIG. 49)"}}, "data": [{"molecule": "COC(=O)Nc1nc2ccc(C(=O)c3cccs3)cc2[nH]1", "note": "[nocodazole]", "values": [{"measurement": "Cell-in-cell structure of the microtumor", "setting": "[1]", "result": "destructed"}, {"measurement": "Membranous expression of α-tubulin in the microtumor", "setting": "[1]", "result": "disappeared"}, {"measurement": "Release of cells from the inner microtumor", "setting": "[1]", "result": "a number of viable cells were scattered so as to overflow from the inner microtumor"}, {"measurement": "Adhesion of microtumor to the spot on the cell culture substrate / morphology", "setting": "nocodazole final concentration 1 μM, PCI-55 microtumor on cell culture substrate 1, time-lapse DIC (FIG. 48)", "result": "prevented from adhering to the spot on the cell culture substrate, and formed spheroidal morphology"}, {"measurement": "Accumulation of Annexin V on the surface of microtumor (dead cell phenotype)", "setting": "nocodazole treatment, Annexin V and EthD time-lapse images (FIG. 50)", "result": "reduced the accumulation of Annexin V on the surface of microtumor"}]}]}
